Reference: the NIST ThermoML archive (doi:10.1016/j.jct.2008.06.016)

Assay: molar heat capacity at constant pressure
Settings: 101.33 kPa, Crystal, Small sample (50 mg) DSC

O=C(O)c1ccc(O)cc1 [4-hydroxybenzoic acid]
Settings	molar heat capacity at constant pressure [J/K/mol]
280.8 K	138.9
285.8 K	141.3
290.8 K	143.5
295.8 K	145.7
300.7 K	148
305.8 K	149.7
310.8 K	151.8
315.8 K	154.6
320.8 K	156.4
325.8 K	158.7
330.8 K	161.4
335.8 K	163.8
340.8 K	166.3
345.8 K	168.6
350.8 K	171.1
355.8 K	173.4
360.8 K	175.5
365.7 K	177.8
370.7 K	180
375.7 K	182
380.8 K	184.4
385.8 K	186.7
390.8 K	188.9
395.8 K	191
400.8 K	193.1
405.8 K	195.1
410.8 K	197
415.8 K	198.7
420.8 K	200.4
425.8 K	202.2
430.8 K	204.5
435.8 K	207.1
440.8 K	209.5
445.8 K	211.6
450.8 K	213.8
455.8 K	215.9
460.7 K	218.2

NC(=O)c1ccccc1O [2-hydroxybenzamide]
Settings	molar heat capacity at constant pressure [J/K/mol]
280.4 K	124.1
285.4 K	126.3
290.4 K	128.7
295.4 K	130.9
300.4 K	133.1
305.4 K	135.6
310.4 K	138
315.4 K	140.5
320.4 K	142.9
325.4 K	145.5
330.4 K	148.1
335.4 K	150.5
340.4 K	153.1
345.4 K	155.6
350.4 K	158.2
355.4 K	160.6
360.4 K	163.3
365.4 K	165.6
370.4 K	168.1
375.4 K	170.3
380.4 K	172.9
385.4 K	175.4
390.4 K	177.9
395.4 K	180.6

O=C(O)c1ccccc1O [2-hydroxybenzoic acid]
Settings	molar heat capacity at constant pressure [J/K/mol]
280.4 K	128.5
285.5 K	130
290.5 K	131.6
295.4 K	133.5
300.4 K	135.4
305.4 K	137.4
310.4 K	139.4
315.4 K	141.4
320.4 K	143.5
325.4 K	145.5
330.4 K	147.6
335.4 K	149.8
340.4 K	151.8
345.4 K	154.1
350.4 K	156.2
355.4 K	158.2
360.4 K	160.3
365.4 K	162.3
370.4 K	164.2
375.4 K	165.9
380.4 K	168
385.4 K	170.1
390.4 K	172.1
395.5 K	173.8
400.5 K	175.6
405.5 K	177.5

O=C(O)c1cccc(O)c1 [3-hydroxybenzoic acid]
Settings	molar heat capacity at constant pressure [J/K/mol]
280.4 K	134.6
285.5 K	136.8
290.5 K	138.9
295.4 K	141.2
300.4 K	143.5
305.4 K	145.8
310.4 K	147.9
315.4 K	150.2
320.4 K	152.7
325.5 K	155
330.5 K	157.4
335.5 K	159.7
340.5 K	162.2
345.5 K	164.5
350.4 K	166.9
355.4 K	169.1
360.4 K	171.3
365.4 K	173.7
370.4 K	175.9
375.4 K	177.9
380.4 K	180.8
385.4 K	183.8
390.5 K	186.3
395.5 K	188.7
400.5 K	190.6
405.5 K	192.6
410.5 K	194.6
415.5 K	196.6
420.5 K	198.3
425.5 K	200.3
430.5 K	202.5
435.5 K	205
440.5 K	207.5
445.5 K	209.9
450.5 K	212.1
455.5 K	214.8
460.4 K	218.8
